Patent US6670446B1, “N1 modified glycopeptides” (Eli Lilly and Company, priority 1998, dated 2003)

What was measured:
Type in all cases: cell-based
[1] = system: Staphylococcus haemolyticus 105; test: MIC, standard broth micro-dilution assay, SH 105
Method: (§1) The antibacterial efficacy of the present compounds is illustrated by Table III. The minimal inhibitory concentrations (MICs) were determined using a standard broth micro-dilution assay.

[2] = system: Enterococcus faecalis 2041; test: MIC, standard broth micro-dilution assay, EF 2041
Method: as §1

[3] = system: Enterococcus faecium 180; test: MIC, standard broth micro-dilution assay, EF 180
Method: as §1

[4] = system: Staphylococcus haemolyticus 415; test: MIC, standard broth micro-dilution assay, SH 415
Method: as §1

[5] = system: Haemophilus influenzae RD; test: MIC, standard broth micro-dilution assay, HFRD
Method: as §1

[6] = system: Staphylococcus aureus 491; test: MIC, standard broth micro-dilution assay, SA 491
Method: as §1

[7] = system: Staphylococcus epidermidis 270; test: MIC, standard broth micro-dilution assay, SE 270
Method: as §1

[8] = system: Enterococcus gallinarum 245; test: MIC, standard broth micro-dilution assay, EG 245
Method: as §1

[9] = system: Staphylococcus aureus X778; test: MIC, standard broth micro-dilution assay, SA X778
Method: as §1

[10] = system: Staphylococcus aureus X400; test: MIC, standard broth micro-dilution assay, SA X400
Method: as §1

[11] = system: Enterococcus faecium 180-1; test: MIC, standard broth micro-dilution assay, EF 180-1
Method: as §1

[12] = system: Staphylococcus aureus S13E
Method: as §1

[13] = system: Escherichia coli EC14; test: MIC, standard broth micro-dilution assay, EC 14
Method: as §1

[14] = system: Staphylococcus aureus SA1199A; test: MIC, standard broth micro-dilution assay, SA 1199A
Method: as §1

[15] = system: Resistant Enterococcus faecium and faecalis; test: MIC, standard broth micro-dilution assay, Resistant; details: geometric mean of 4-6 isolates
Method: as §1

[16] = system: Sensitive Enterococcus faecium and faecalis; test: MIC, standard broth micro-dilution assay, Sensitive; details: geometric mean of 4-6 isolates
Method: as §1

[17] = system: Staphylococcus aureus SA1199; test: MIC, standard broth micro-dilution assay, SA 1199
Method: as §1

[18] = system: Staphylococcus aureus 489; test: MIC, standard broth micro-dilution assay, SA 489
Method: as §1

[19] = system: Enterococcus faecalis 276; test: MIC, standard broth micro-dilution assay, EF 276
Method: as §1

[20] = system: Staphylococcus aureus 447; test: MIC, standard broth micro-dilution assay, SA 447
Method: as §1

[21] = system: Staphylococcus aureus 446; test: MIC, standard broth micro-dilution assay, SA 446
Method: as §1

SMILES	minimal inhibitory concentration (MIC), SH 105 [1]	minimal inhibitory concentration (MIC), EF 2041 [2]	minimal inhibitory concentration (MIC), EF 180 [3]	minimal inhibitory concentration (MIC), SH 415 [4]	minimal inhibitory concentration (MIC), HFRD [5]	minimal inhibitory concentration (MIC), SA 491 [6]	minimal inhibitory concentration (MIC), SE 270 [7]	minimal inhibitory concentration (MIC), EG 245 [8]	minimal inhibitory concentration (MIC), SA X778 [9]	minimal inhibitory concentration (MIC), SA X400 [10]	minimal inhibitory concentration (MIC), EF 180-1 [11]	minimal inhibitory concentration (MIC), SA S13E [12]	minimal inhibitory concentration (MIC), EC 14 [13]	minimal inhibitory concentration (MIC), SA 1199A [14]	minimal inhibitory concentration (MIC), Resistant [15]	minimal inhibitory concentration (MIC), Sensitive [16]	minimal inhibitory concentration (MIC), SA 1199 [17]	minimal inhibitory concentration (MIC), SA 489 [18]	minimal inhibitory concentration (MIC), EF 276 [19]	minimal inhibitory concentration (MIC), SA 447 [20]	further results
CC1OC(OC2c3ccc(c(Cl)c3)Oc3cc4cc(c3OC3OC(CO)C(O)C(O)C3OC3CC(C)(NCc5ccc(-c6ccccc6)cc5)C(O)C(C)O3)Oc3ccc(cc3Cl)C(O)C(NC(=O)C3CCCN3C(=O)OC(C)(C)C)C(=O)NC(CC(N)=O)C(=O)NC4C(=O)NC3C(=O)NC2C(=O)NC(C(=O)O)c2cc(O)cc(O)c2-c2cc3ccc2O)CC(C)(N)C1O [Example 29, N^1-(N-BOC-L-proline) derivative of N^DISACC-(p-phenylbenzyl)desleucylA82846B]	0.125	0.125	4	0.5	>64	≦.06	≦.06	2	0.125	0.25	≦.06	0.5	>64	≦.06	27	1.2	0.125	0.25	0.25	0.5	minimal inhibitory concentration (MIC), SA 446 [21]: 2
CCCCCCNC(CC(C)C)C(=O)NC1C(=O)NC(CC(N)=O)C(=O)NC2C(=O)NC3C(=O)NC(C(=O)NC(C(=O)O)c4cc(O)cc(O)c4-c4cc3ccc4O)C(OC3CC(C)(N)C(O)C(C)O3)c3ccc(c(Cl)c3)Oc3cc2cc(c3OC2OC(CO)C(O)C(O)C2OC2CC(C)(NCCCCCC)C(O)C(C)O2)Oc2ccc(cc2Cl)C1O [Example 38, N^1-(N-n-hexyl-D-leucine) derivative of N^DISACC-n-hexyl desleucylA82846B]	1	≦.06	2	1	no	≦.06	1	0.5	0.5	1	no growth	0.5	>64	≦.06	6.7	0.19	1	0.25	0.25	1	minimal inhibitory concentration (MIC), SA 446 [21]: 1
